Results on one molecule are retold here after patent publication US20200171015A1, “METHODS OF TREATMENT FOR CYSTIC FIBROSIS” (Vertex Pharmaceuticals Incorporated, priority 2017, published 2020).

Marks after values point to notes of the source that are not given here.

Series [1] deals with people with CF who have one F508del mutation and one minimal function mutation (F/MF). In words: Phase 2 study Part 1: efficacy (ppFEV1, sweat chloride, CFQ-R). Type of series: in vivo, human. To be noted: Part 1 F/MF. How it is done: (§1) The safety of Compound I in triple combination with Compounds II and III is evaluated in CF subjects in a 2-part, randomized, double-blind, placebo- and Compound II/III-controlled, parallel-group, multicenter study. Parts 1 and 2 include a Screening Period, a 2-week Treatment Period, and a Safety Follow-up Visit. Part 2 also includes a 4-week Run-in Period before the Treatment Period and a 2-week Washout Period after the Treatment Period.
In Part 1, three dose levels of Compound I (100, 200, and 300 mg q12h) in triple combination with Compound II (100 mg qd) and Compound III (150 mg q12h) is evaluated in subjects with the F508del/MF genotype.
Part 1 has three cohorts (Cohorts IA, IB, and IC). In Cohort 1A, the triple combination of Compound I at 100 mg q12h, Compound II at 100 mg qd, and Compound III at 150 mg q12h is evaluated in subjects with the F508del/MF genotype. In Cohort IB, the triple combination of Compound I at 200 mg q12h, Compound II at 100 mg qd, and Compound III at 150 mg q12h is evaluated in subjects with the F508del/MF genotype. In Cohort IC, the triple combination of Compound I at 300 mg q12h, Compound II at 100 mg qd, and Compound III at 150 mg q12h is evaluated in subjects with the F508del/MF genotype. Triple placebo is the comparator for all three cohorts
(§2) Primary endpoints for the study include: safety and tolerability assessments based on adverse events (AEs), clinical laboratory values, standard 12-lead electrocardiograms (ECGs), vital signs, and pulse oximetry. Secondary endpoints include: absolute change in sweat chloride concentrations from baseline at Day 15; absolute change in percent predicted forced expiratory volume in 1 second (ppFEV1) from baseline at Day 15; relative change in ppFEV1 from baseline at Day 15; absolute change in Cystic Fibrosis Questionnaire-Revised (CFQ-R) respiratory domain score from baseline at Day 15; and PK parameters of Compound I, Compound II, Compound III, and metabolites of Compounds II and III.
(§3) In this Phase 2 randomized, double-blind study, Compound I (100 mg, 200 mg and 300 mg q12h) in combination with Compound II (100 mg qd) and Compound III (150 mg q12h) in people with CF ages 18 and older who have one F508del mutation and one minimal function mutation and in people who have two copies of the F508del mutation was studied. Primary endpoints as described above in Example 6 were for safety and tolerability. Secondary endpoints included absolute change in ppFEV1 and change in sweat chloride.
In Part 1 of the study, the triple combination was evaluated for two weeks in 34 patients ages 18 and older who had one F508de/mutation and one minimal function mutation (8 in combined placebo, 6 in Compound I 100 mg, 10 in Compound 1 200 mg, and 10 in Compound 1 300 mg). A summary of the within-group ppFEV (primary endpoint) and sweat chloride data (secondary endpoint) through Day 15 is provided below.

Series [2] has as its system people with CF who have two copies of the F508del mutation (F/F). Put plainly: Phase 2 study Part 2: efficacy (ppFEV1, sweat chloride). To be noted: Part 2 F/F. Type of series: in vivo, human. How it is done: as §1
In Part 2, two dose levels of Compound I (200 and 300 mg q12h) in triple combination with Compound II (100 mg qd) and Compound III (150 mg q12h) is evaluated in subjects with the F508del/F508del genotype.
Part 2 has two cohorts (Cohorts 2A and 2B). In Cohort 2A, the triple combination of Compound I at 200 mg q12h, Compound II at 100 mg qd, and Compound III at 150 mg q12h is evaluated in subjects with the F508del/F508del genotype. In Cohort 2B, the triple combination of Compound I at 300 mg q12h, Compound II at 100 mg qd, and Compound III at 150 mg q12h is evaluated in subjects with the F508del/F508del genotype. The combination of placebo, Compound II, and Compound III is the comparator for both cohorts.
as §2, §3
In Part 2 of the study, the triple combination was evaluated for two weeks in 14 patients ages 18 and older who had two copies of the F508del mutation, who were already receiving the combination of Compound II and Compound III (4 weeks, 4 in placebo and 10 in Compound I 200 mg). A summary of the within-group lung function (ppFEV) (primary endpoint) and sweat chloride data (secondary endpoint) for the triple combination treatment period, from baseline (end of the 4-week Compound II/Compound III run-in period), through Day 15 is provided below.
A summary of the within-group lung function (ppFEV) (primary endpoint) and sweat chloride data (secondary endpoint) from patients in Part 2 of the study who received the triple combination including 300 mg of Compound I for 4 weeks is provided below.

Series [3] in a line: Example 4: randomized, double-blind, placebo-controlled single- and multiple-dose escalation study, safety and tolerability. The note with it: healthy volunteers. Type of series: in vivo, human. From the text: A randomized, double-blind, placebo-controlled, single- and multiple-dose, dose-escalation study was conduced in healthy volunteer subjects. Subjects were randomized to receive Compound I or placebo (Part A and Part B), and triple combination of Compound I, Compound II, and Compound III, or triple placebo (Part C).

Series [4] is described as follows: Previous studies of Compound I, safety and tolerability. Type of series: in vivo, human.
The nature of series [5]: Preclinical reproductive toxicology studies. The note with it: in vivo.
Another series has as its system CFTR. To be noted: disclosed in PCT Publication No. WO 2016/057572; cited from earlier work.
Where [6] appears, read: Compound I 100 mg in triple combination with Compound II and Compound III, n 6.
Where [7] appears, read: Compound I 200 mg in triple combination with Compound II and Compound III, n 10.
Setting [8] is: Compound I 300 mg in triple combination with Compound II and Compound III, n 21.

Consider `CC(C)COc1cc(F)cc(-c2ccc(C(=O)NS(=O)(=O)c3cccc(N)n3)c(N3C[C@@H](C)CC3(C)C)n2)c1` [Compound I, N-[(6-amino-2-pyridyl)sulfonyl]-6-(3-fluoro-5-isobutoxy-phenyl)-2-[(4S)-2,2,4-trimethylpyrrolidin-1-yl]pyridine-3-carboxamide], for which the “Sweat Chloride, Abs. Change from Baseline, Day 15 Results” value was −19.5 in series [1] (setting [6]); −13.6^a in series [1] (Compound I 200 mg in triple combination with Compound II and Compound III, n 10, missing data from 2 subjects); −27.5 in series [1] (Compound I 300 mg in triple combination with Compound II and Compound III, n 10); −21.3 in series [2] (setting [7]); −23.9 in series [2] (setting [8]). Besides, the “ppFEV1, Abs. Change from Baseline, Day 15 Results” value in series [1] (setting [6]) is 5.7; in series [1] (setting [7]), 9.7; in series [1] (Compound I 300 mg in triple combination with Compound II and Compound III, n 10, missing data from 2 subjects), 8.0^a; in series [2] (setting [7]) it was 7.3; in series [2] (setting [8]), 5.1. The “Sweat Chloride, Abs. Change from Baseline, Day 29 Results” value in series [2] (setting [8]) is recorded as −22.3. Besides, in series [2] (setting [8]), the “ppFEV1, Abs. Change from Baseline, Day 29 Results” value came to 6.5. Also, the “Deaths, serious or severe adverse events” value in series [3] (all parts of the study) is recorded as “no deaths or serious or severe adverse events”. In series [3] (all parts of the study), the “Severity of adverse events” value is recorded as “mild or moderate”. Moreover, the Dose-limiting adverse events entry in series [3] (multiple doses of 800 mg q12h) is listed as “Dose-limiting adverse events were observed”. Moreover, the Tolerability entry is “well tolerated” in series [3] (multiple doses up to 400 mg q12h for 14 days); “well tolerated” in series [3] (single doses from 50 mg up to 2000 mg); “well tolerated” in series [3] (up to 300 mg q12h in triple combination with Compound II (100 mg qd) and Compound III (150 mg q12h) for 13 days). Also, the Safety and tolerability entry in series [4] (multiple doses up to 300 mg q12h in combination with Compound II (100 mg qd) and Compound III (150 mg q12h), after 14 days of dosing) is “generally safe and tolerated”; in series [4] (single doses up to 2000 mg and multiple doses up to 400 mg q12h) it was “generally safe and well tolerated”. Moreover, the Hemolysis result in series [4] (subjects with glucose-6-phosphate dehydrogenase (G6PD) deficiency) was “treatment-emergent hemolysis in a subject who was found to have glucose-6-phosphate dehydrogenase (G6PD) deficiency”. The “Findings in preclinical reproductive toxicology studies” value in series [5] is listed as “no adverse findings of note”. Further, in the series with CFTR, the “EC30 as CFTR modulator” value was < 3 µM.
